Values after ≈ are worked out from the molar mass of the structure shown. Values joined by “and” are separate entries in the source; they are usually repeats but may differ in a detail not shown here. Equal values may be shown once.
Tested on: SARS-CoV-2
Assay: Virus neutralization (VN) assay, scoring of SARS-CoV-2 cytopathic effects (CPE) in Vero E6 cells
Format: cell-based

## O=C1CN(/N=C/c2ccc(-c3ccc([N+](=O)[O-])cc3)o2)C(O)=N1 [dantrolene]
  CPE observed: no CPE was observed
  Day 4 Read (CPE in wells): 3/3 wells had No CPE and 2/3 wells had >90% and 1/3 wells had >90% and 3/3 wells had >90% and 3/3 wells had sparce
  Day 6 Read (CPE in wells): 3/3 wells had No CPE and 2/3 wells had >90% and 1/3 wells had >90% and 3/3 wells had >90% and 3/3 wells had sparce
  anti-viral activity: showed anti-viral activity
  cytopathic effects (indicating virus growth): No cytopathic effects
Severe acute respiratory syndrome coronavirus 2, read-out: minimum inhibitory concentration
  MIC: 20 µM (≈ 6.29 µg/mL)
